Values quoted from earlier work, collected in patent publication US20100291221A1, “Method of administering dose-sparing amounts of formoterol fumarate-budesonide combination particles by inhalation” (priority 2009, published 2010).

Assays:
[1] = 9 ug Formoterol Fumarate alone (2 puffs); first treatment day
[2] = test system: adult asthmatics; settings: inhaled

For `COc1ccc(C[C@@H](C)NC[C@H](O)c2ccc(O)c(NC=O)c2)cc1.COc1ccc(C[C@@H](C)NC[C@H](O)c2ccc(O)c(NC=O)c2)cc1.O=C(O)/C=C/C(=O)O` [Formoterol Fumarate, formoterol fumarate], the “Change in FEV1 at 15 minutes” value [1] is given as 11%, the “Change in FEV1 at 120 minutes” value [1] is given as 18% and the Minimum efficacy dose ([2]; adult asthmatics) is given as “approximately 4 micrograms”. For the same compound, the “Level at which systemic b2 agonist effects begin to occur” value [2] was “above 12 micrograms”.
